Where two headings read alike, the source gives them in different places.
Columns and labels:
[1] = Phase 2 study: PK follow-up, plasma obicetrapib concentrations after end of treatment; assay type: in vivo, human
Protocol: The screening period for this study took up to 2-weeks. Afterwards patients were randomized to placebo, 5 mg obicetrapib or 10 mg obicetrapib for an 8-week treatment period. After the treatment period, patients continued for a 4-week safety follow-up and a 15-week PK follow-up.
(§1) The primary outcome measure was LDL-C (percent change). Secondary outcome measures included ApoB, Non-HDL-C and HDL-C (percent change). The Intent-to-Treat (ITT) Population included all participants randomized into the study. The Modified ITT (mITT) Population included all participants in the ITT Population who receive at least 1 dose of any study drug and have a baseline value for the LDL-C assessment. The Safety Population included all participants who receive at least 1 dose of any study drug. The mITT Population was the primary population for the efficacy analyses. The primary efficacy analysis of the percent change in LDL-C was performed using a mixed model for repeated measures (MMRM) approach. In order to maintain the overall Type I error rate, the secondary efficacy endpoints were tested sequentially at the 0.05 significance level according to the pre-specified order of hierarchy. All safety endpoints were summarized descriptively. No statistical inference was applied to the safety endpoints. Plasma obicetrapib concentrations were summarized with descriptive statistics based on the […].

[2] = Phase 2 study of obicetrapib as adjunct to high-intensity statin therapy: safety and tolerability (adverse events); assay type: in vivo, human; settings: for AEs, total: subjects, number (%): on top of high-intensity statin; for Subjects reporting treatment-emergent adverse events: safety population
Protocol: Patients were randomly assigned to receive one of the three treatments investigative treatments. All treatments were to be taken once daily with food for 8 weeks. Safety was assessed throughout the trial by monitoring adverse events and concomitant medication use, 12-lead electrocardiograms (ECGs), vital signs, laboratory safety assessments and physical examinations. Additional assessments included salivary cortisol, plasma aldosterone, high-sensitivity C-reactive protein (hsCRP) and endothelin 1.
Safety and tolerability profiles of obicetrapib assessed by clinical laboratory values and incidence of adverse events (AEs).
as §1

[3] = tested on: LDL-C; settings: cited from earlier work
[4] = either obicetrapib treatment group (5 mg, 10 mg)

CCOC(=O)N1c2ccc(C(F)(F)F)cc2[C@@H](N(Cc2cc(C(F)(F)F)cc(C(F)(F)F)c2)c2ncc(OCCCC(=O)O)cn2)C[C@H]1CC [Obicetrapib, (2R,4S)-4-{[3,5-bis(trifluoromethyl)benzyl]-[5-(3-carboxypropoxy)pyrimidin-2-yl]amino}-2-ethyl-6-trifluoromethyl-3,4-dihydro-2H-quinoline-1-carboxylic acid ethyl ester]
Plasma obicetrapib levels, median decrease after end-of-treatment ([1]; 5 mg group, 4 weeks after end-of-treatment): 92% | Plasma obicetrapib levels, median decrease after end-of-treatment ([1]; 5 mg group, 8 weeks after end-of-treatment): 98% | Plasma obicetrapib levels, median decrease after end-of-treatment ([1]; 5 mg group, 15 weeks after end-of-treatment): 99% | Plasma obicetrapib levels, median decrease after end-of-treatment ([1]; 10 mg group, 4 weeks after end-of-treatment): 93% | Plasma obicetrapib levels, median decrease after end-of-treatment ([1]; 10 mg group, 8 weeks after end-of-treatment): 98% | Plasma obicetrapib levels, median decrease after end-of-treatment ([1]; 10 mg group, 15 weeks after end-of-treatment): 99% | Tolerability and safety profile ([2]; 5 mg and 10 mg on top of high intensity statin therapy): well tolerated with a safety profile similar to placebo | Subjects reporting events considered study drug related ([2]; 5 mg group): 2 subjects | AEs, related: number of events ([2]; 5 mg group (N = 40)): 2 events | AEs, related: subjects, number (%) ([2]; 5 mg group (N = 40)): 2 (5.0) | AEs, severe ([2]; 5 mg group (N = 40)): 0 | AEs, total: number of events ([2]; 5 mg group (N = 40)): 24 events | Deaths ([2]; 5 mg group (N = 40)): 0 | SAEs, related ([2]; 5 mg group (N = 40)): 0 | SAEs, total ([2]; 5 mg group (N = 40)): 0 | TEAEs leading to discontinuation of study drug ([2]; 5 mg group (N = 40)): 0 | TESAEs leading to discontinuation of study ([2]; 5 mg group (N = 40)): 0 | AEs, total: subjects, number (%) ([2]; 5 mg group (N = 40)): 13 (32.5) | Adverse events: Basal cell carcinoma ([2]; 5 mg group (n = 40)): 0 (0.0) n (%) | Adverse events: Fatigue ([2]; 5 mg group (n = 40)): 2 (5.0) n (%) | Adverse events: Gastrointestinal disorders ([2]; 5 mg group (n = 40)): 3 (7.5) n (%) | Adverse events: General disorders and administration site conditions ([2]; 5 mg group (n = 40)): 3 (7.5) n (%) | Adverse events: Hypertension ([2]; 5 mg group (n = 40)): 2 (5.0) n (%) | Adverse events: Infections and infestations ([2]; 5 mg group (n = 40)): 1 (2.5) n (%) | Adverse events: Injury, poisoning and procedural complications ([2]; 5 mg group (n = 40)): 3 (7.5) n (%) | Adverse events: Investigations ([2]; 5 mg group (n = 40)): 2 (5.0) n (%) | Adverse events: Metabolism and nutrition disorders ([2]; 5 mg group (n = 40)): 2 (5.0) n (%) | Adverse events: Muscle spasms ([2]; 5 mg group (n = 40)): 0 (0.0) n (%) | Adverse events: Musculoskeletal and connective tissue disorders ([2]; 5 mg group (n = 40)): 4 (10.0) n (%) | Adverse events: Nausea ([2]; 5 mg group (n = 40)): 1 (2.5) n (%) | Adverse events: Neoplasms benign, malignant and unspecified (including cysts and polyps) ([2]; 5 mg group (n = 40)): 0 (0.0) n (%) | Adverse events: Nervous system disorders ([2]; 5 mg group (n = 40)): 2 (5.0) n (%) | Adverse events: Respiratory, thoracic and mediastinal disorders ([2]; 5 mg group (n = 40)): 2 (5.0) n (%) | Adverse events: Type 2 diabetes mellitus ([2]; 5 mg group (n = 40)): 2 (5.0) n (%) | Adverse events: Vascular disorders ([2]; 5 mg group (n = 40)): 2 (5.0) n (%) | Subjects reporting treatment-emergent adverse events ([2]; 5 mg group): 15 subjects | Subjects reporting events considered study drug related ([2]; 10 mg group): 1 subject | AEs, related: number of events ([2]; 10 mg group (N = 40)): 1 events | AEs, related: subjects, number (%) ([2]; 10 mg group (N = 40)): 1 (2.5) | AEs, severe ([2]; 10 mg group (N = 40)): 0 | AEs, total: number of events ([2]; 10 mg group (N = 40)): 11 events | Deaths ([2]; 10 mg group (N = 40)): 0 | SAEs, related ([2]; 10 mg group (N = 40)): 0 | SAEs, total ([2]; 10 mg group (N = 40)): 0 | TEAEs leading to discontinuation of study drug ([2]; 10 mg group (N = 40)): 0 | TESAEs leading to discontinuation of study ([2]; 10 mg group (N = 40)): 0 | AEs, total: subjects, number (%) ([2]; 10 mg group (N = 40)): 8 (20.0) | Adverse events: Basal cell carcinoma ([2]; 10 mg group (n = 40)): 0 (0.0) n (%) | Adverse events: Fatigue ([2]; 10 mg group (n = 40)): 1 (2.5) n (%) | Adverse events: Gastrointestinal disorders ([2]; 10 mg group (n = 40)): 0 (0.0) n (%) | Adverse events: General disorders and administration site conditions ([2]; 10 mg group (n = 40)): 2 (5.0) n (%) | Adverse events: Hypertension ([2]; 10 mg group (n = 40)): 0 (0.0) n (%) | Adverse events: Infections and infestations ([2]; 10 mg group (n = 40)): 0 (0.0) n (%) | Adverse events: Injury, poisoning and procedural complications ([2]; 10 mg group (n = 40)): 1 (2.5) n (%) | Adverse events: Investigations ([2]; 10 mg group (n = 40)): 0 (0.0) n (%) | Adverse events: Metabolism and nutrition disorders ([2]; 10 mg group (n = 40)): 0 (0.0) n (%) | Adverse events: Muscle spasms ([2]; 10 mg group (n = 40)): 0 (0.0) n (%) | Adverse events: Musculoskeletal and connective tissue disorders ([2]; 10 mg group (n = 40)): 4 (10.0) n (%) | Adverse events: Nausea ([2]; 10 mg group (n = 40)): 0 (0.0) n (%) | Adverse events: Neoplasms benign, malignant and unspecified (including cysts and polyps) ([2]; 10 mg group (n = 40)): 0 (0.0) n (%) | Adverse events: Nervous system disorders ([2]; 10 mg group (n = 40)): 2 (5.0) n (%) | Adverse events: Respiratory, thoracic and mediastinal disorders ([2]; 10 mg group (n = 40)): 0 (0.0) n (%) | Adverse events: Type 2 diabetes mellitus ([2]; 10 mg group (n = 40)): 0 (0.0) n (%) | Adverse events: Vascular disorders ([2]; 10 mg group (n = 40)): 0 (0.0) n (%) | Subjects reporting treatment-emergent adverse events ([2]; 10 mg group): 8 subjects | Laboratory parameters (chemistry, hematology, urinalysis) compared with placebo [2, 4]: no clinically meaningful shifts in chemistry, hematology or urinalysis parameters | Vital signs compared with placebo [2, 4]: no changes in vital signs | LDL-C reduction ([3]; 1 mg for 12 weeks, mild dyslipidemia): 27% | LDL-C reduction ([3]; 2.5 mg for 12 weeks, mild dyslipidemia): 33% | LDL-C reduction ([3]; 5 mg for 12 weeks, mild dyslipidemia): 45% | LDL-C reduction ([3]; 10 mg for 12 weeks, mild dyslipidemia): 45% | LDL-C reduction ([3]; 10 mg obicetrapib plus 10 mg rosuvastatin): 63% | LDL-C reduction ([3]; 10 mg obicetrapib plus 20 mg atorvastatin): 68% | incremental LDL-C reduction compared with statin monotherapy ([3]; daily 10 mg with moderate-intensity statins (20 mg atorvastatin or 10 mg rosuvastatin), 12 weeks): up to 50%

Source: patent publication US20230041138A1, “TREATMENT OF HIS HYPORESPONDERS” (NewAmsterdam Pharma B.V. (Dutch Registration No. 55971946), priority 2021, published 2023)
